In ChEMBL document CHEMBL1132326, “Synthesis and dopamine receptor modulating activity of substituted bicyclic thiazolidine lactam peptidomimetics of L-prolyl-L-leucyl-glycinamide” (1999) one finds Increase data, which are given here for 4 compounds.

For experiment [1], the system named is Rattus norvegicus. Nature of the experiment: Effect on rotational behavior in rat after i.p. administration of 1 ug/kg. Type of experiment: functional.
Experiment [2] relates to Rattus norvegicus. Put plainly: Effect on rotational behavior in rat after i.p. administration of 0.1 ug/kg. Type of experiment: functional.

For the compound `NC(=O)[C@H]1CS[C@@H]2C[C@@](Cc3ccccc3)(NC(=O)[C@@H]3CCCN3)C(=O)N12`, the Increase with Rattus norvegicus [1] is 30%.

As for `CCCC[C@@]1(NC(=O)[C@@H]2CCCN2)C[C@H]2SC[C@H](C(N)=O)N2C1=O`, the Increase in the experiment with Rattus norvegicus [2] is 56%.

As to `CC(C)C[C@@]1(NC(=O)[C@@H]2CCCN2)C[C@H]2SC[C@H](C(N)=O)N2C1=O`, in the experiment on Rattus norvegicus [1], the Increase amounted to 44%.

As for `NC(=O)[C@H]1CS[C@@H]2C[C@@H](NC(=O)[C@@H]3CCCN3)C(=O)N12`, in the experiment with Rattus norvegicus [2], the Increase was determined as 23%.
